Experimental data: the supplement of paper PMC10307832

Tests used:
Assay in all cases: relative viability (nuclei count vs DMSO), 5 days (fraction); higher = more cells survive
[1] = compound: C1=CC=C2C(=C1)N=C(S2)C(C#N)C3=NC(=NC=C3)NCCC4=CN=CC=C4 + N=C(N)NC(=N)NCCc1ccccc1 [Phenformin] (partner 250 µM)
Outline: (§1)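 Lung cancer cell lines were seeded in 1536-well plates and dosed by pin tool the next day, with either a single drug or a fixed anchor-drug dose combined with five library-drug doses (not always all listed) spaced in √10 steps. Five days later, one step fixed the cells and stained their nuclei (final 0.05% Triton X-100, 1% formaldehyde, 1 ug/ml Hoechst), and nuclei were counted on 4× images. Relative viability is the nuclei count in treated wells divided by the count in vehicle wells, and each value is the median of duplicate plates.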

[2] = compound: C#Cc1cccc(Nc2ncnc3cc(OC)c(OCCCCCCC(=O)NO)cc23)c1 [CUDC-101] + O=C(c1cc(Cc2n[nH]c(=O)c3ccccc23)ccc1F)N1CCN(C(=O)C2CC2)CC1 [Olaparib] (partner 8 µM)
Outline: as §1

[3] = compound: C#Cc1cccc(Nc2ncnc3cc(OC)c(OCCCCCCC(=O)NO)cc23)c1 [CUDC-101] + CS(=O)(=O)N1CCN(Cc2cc3nc(-c4cccc5[nH]ncc45)nc(N4CCOCC4)c3s2)CC1 [Pictilisib] (partner 1 µM)
Outline: as §1

[4] = compound: COc1cc2/c(=N/c3ccc(Br)cc3F)nc[nH]c2cc1OCC1CCN(C)CC1 [Vandetanib] + NC(=O)Nc1cc(-c2cccc(F)c2)sc1C(=O)N[C@H]1CCCNC1 [AZD7762] (partner 0.2 µM)
Outline: as §1

Row | Cell Line | relative viability ([1]; first compound 0.005 µM) | relative viability ([1]; first compound 0.01581 µM) | relative viability ([1]; first compound 0.05 µM) | relative viability ([1]; first compound 0.1581 µM) | relative viability ([1]; first compound 0.5 µM) | relative viability ([2]; first compound 0.01 µM) | relative viability ([2]; first compound 0.03162 µM) | relative viability ([2]; first compound 0.1 µM) | relative viability ([2]; first compound 0.3162 µM) | relative viability ([2]; first compound 1 µM) | relative viability ([3]; first compound 0.01 µM) | relative viability ([3]; first compound 0.03162 µM) | relative viability ([3]; first compound 0.1 µM) | relative viability ([3]; first compound 0.3162 µM) | relative viability ([3]; first compound 1 µM) | relative viability ([4]; first compound 0.02 µM) | relative viability ([4]; first compound 0.06325 µM) | relative viability ([4]; first compound 0.2 µM) | relative viability ([4]; first compound 0.6325 µM) | relative viability ([4]; first compound 2 µM)
1 | A-427 | 0.252 | 0.34 | 0.367 | 0.322 | 0.288 | 0.711 | 0.671 | 0.722 | 0.694 | 0.607 | 0.804 | 0.656 | 0.655 | 0.698 | 0.614 | 0.684 | 0.674 | 0.719 | 0.62 | 0.61
2 | NCI-H1755 | 0.617 | 0.641 | 0.621 | 0.695 | 0.607 | 0.873 | 0.933 | 0.904 | 0.853 | 0.753 | 0.406 | 0.409 | 0.444 | 0.41 | 0.264 | 0.455 | 0.436 | 0.42 | 0.437 | 0.503
3 | NCI-H838 | 0.326 | 0.573 | 0.527 | 0.717 | 0.39 | 0.802 | 0.784 | 0.807 | 0.649 | 0.489 | 0.516 | 0.508 | 0.683 | 0.628 | 0.397 | 0.902 | 0.895 | 0.976 | 1.03 | 0.894
4 | ABC-1 | 0.245 | 0.22 | 0.241 | 0.219 | 0.251 | 0.908 | 0.767 | 1.14 | 0.922 | 0.424 | 0.688 | 0.788 | 0.547 | 0.533 | 0.212 | 0.871 | 0.901 |  | 0.726 | 0.773
5 | NCI-H1793 | 0.382 | 0.369 | 0.328 | 0.454 | 0.355 | 0.857 | 0.753 | 0.888 | 0.944 | 0.549 | 0.302 | 0.43 | 0.248 | 0.375 | 0.273 | 0.514 | 0.409 | 0.331 | 0.286 | 0.397
6 | EKVX | 0.245 | 0.239 | 0.243 | 0.273 | 0.23 | 1.06 | 0.737 | 0.71 | 0.961 | 0.624 | 0.452 | 0.403 | 0.412 | 0.355 | 0.215 | 0.693 | 0.692 | 0.611 | 0.694 | 0.547
7 | HCC-827 | 0.376 | 0.455 | 0.358 | 0.46 | 0.422 | 0.718 | 0.302 | 0.157 | 0.221 | 0.123 | 1.07 | 0.53 | 0.368 | 0.287 | 0.262 | 0.211 | 0.204 | 0.165 | 0.126 | 0.124
8 | NCI-H2170 | 0.396 | 0.405 | 0.446 | 0.417 | 0.384 | 0.643 | 0.625 | 0.576 | 0.583 | 0.386 | 0.317 | 0.297 | 0.289 | 0.275 | 0.169 | 0.822 | 0.8 | 0.893 | 0.781 | 0.835
9 | NCI-H1395 | 0.422 | 0.378 | 0.415 | 0.449 | 0.418 | 0.472 | 0.558 | 0.447 | 0.435 | 0.405 | 0.59 | 0.682 | 0.564 | 0.652 | 0.581 | 0.404 | 0.399 | 0.427 | 0.418 | 0.434
10 | NCI-H1437 | 0.298 | 0.3 | 0.345 | 0.339 | 0.223 | 0.676 | 0.649 | 0.642 | 0.605 | 0.537 | 0.4 | 0.44 | 0.46 | 0.375 | 0.149 | 1.16 | 1.12 | 1.1 | 1.2 | 1.09
11 | NCI-H2087 | 0.472 | 0.495 | 0.471 | 0.623 | 0.426 | 0.698 | 0.614 | 0.522 | 0.578 | 0.488 | 0.985 | 1.03 | 1.11 | 1.11 | 0.603 | 1.38 | 1.23 | 1.54 | 1.4 | 1.49
12 | LCLC-103H | 0.289 | 0.336 | 0.286 | 0.369 | 0.298 | 0.79 | 0.722 | 0.731 | 0.719 | 0.627 | 0.586 | 0.574 | 0.614 | 0.501 | 0.492 | 0.755 | 0.783 | 0.758 | 0.772 | 0.82
13 | PC-14 | 0.381 | 0.401 | 0.542 | 0.75 | 0.45 | 0.273 | 0.317 | 0.295 | 0.165 | 0.0702 | 0.936 | 0.562 | 0.215 | 0.173 | 0.0519 | 0.361 | 0.282 | 0.25 | 0.164 | 0.13
